Laboratory results published in ChEMBL document CHEMBL6127136, “Discovery of 1-(Phenylsulfonyl)-1,2,3,4-tetrahydroquinoline Derivative as Orally Bioavailable and Safe RORγt Inverse Agonists for Potential Treatment of Rheumatoid Arthritis” (J Med Chem, 2024).
Active and inactive are the calls of the source. No cut-off for these calls is given here.

Assays:
[1] = target: T1, Nuclear receptor ROR-gamma (Homo sapiens, UniProt P51449); test: Inverse agonist activity at N-terminal 6-His-tagged/APC-labeled human RORgammat LBD extracted from Escherichia coli assessed as inhibition of europium-labeled SRC-1 recruitment incubated for 3 hrs by TR-FRET analysis
T1 sequence (P51449 whole entry): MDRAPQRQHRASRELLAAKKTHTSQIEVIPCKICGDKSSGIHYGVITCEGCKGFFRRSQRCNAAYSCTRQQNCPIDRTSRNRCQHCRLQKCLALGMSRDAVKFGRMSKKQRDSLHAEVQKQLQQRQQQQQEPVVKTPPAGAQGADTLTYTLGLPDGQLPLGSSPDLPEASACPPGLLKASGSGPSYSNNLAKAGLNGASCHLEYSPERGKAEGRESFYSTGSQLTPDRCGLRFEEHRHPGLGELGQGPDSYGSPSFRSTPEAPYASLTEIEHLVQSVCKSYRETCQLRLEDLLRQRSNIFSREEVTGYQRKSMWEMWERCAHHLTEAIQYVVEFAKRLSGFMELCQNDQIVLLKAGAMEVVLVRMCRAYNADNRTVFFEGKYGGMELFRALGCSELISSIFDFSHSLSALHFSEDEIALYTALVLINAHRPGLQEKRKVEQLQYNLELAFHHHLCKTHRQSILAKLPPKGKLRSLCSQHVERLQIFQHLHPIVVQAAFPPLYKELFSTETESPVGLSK

[2] = target: T1, Nuclear receptor ROR-gamma; test: Inverse agonist activity at GAL4 DNA-binding domain fused RORgamma (unknown origin) transfected in HEK293T cells co-transfected with GAL4-promoter driven luciferase reporter gene assessed as inhibition of RORgammat transcription incubated for 18 to 20 hrs by plate reader analysis; assay type: cell-based
HUVEC = test: Antiproliferative activity against HUVEC cells assessed as inhibition of colony formation at 2 to 8 uM incubated for 7 days by crystal violet staining based light microscopic analysis; assay type: toxicity, cell-based; settings: human, 168 h, dose 2-8 µM, time 7 day
HeLa = test: Antiproliferative activity against human HeLa cells assessed as inhibition of colony formation at 2 to 8 uM incubated for 7 days by crystal violet staining based light microscopic analysis; assay type: toxicity, cell-based; settings: 168 h, dose 2-8 µM, time 7 day
[3] = Toxicity in chicken type II collagen-induced arthritis DBA/1 mouse model assessed as signs of lymphoma at 20 mg/kg/day, po administered for 2 weeks by H and E staining based analysis; assay type: organism-based; settings: in vivo, 336 h
[4] = Toxicity in chicken type II collagen-induced arthritis DBA/1 mouse model assessed as signs of thymic enlargement at 20 mg/kg/day, po administered for 2 weeks by H and E staining based analysis; assay type: organism-based; settings: in vivo, 336 h
Mus musculus [5] = test: Antiarthritic activity in chicken type II collagen-induced arthritis DBA/1 mouse model assessed as reduction in hind paw thickness at 20 mg/kg/day, po administered for 2 weeks by H and E staining based analysis; assay type: functional, organism-based
Mus musculus [6] = test: Antiarthritic activity in chicken type II collagen-induced arthritis DBA/1 mouse model assessed as improvement in arthritic symptoms at 20 mg/kg/day, po administered for 2 weeks by H and E staining based analysis; assay type: functional, organism-based
[7] = Toxicity in chicken type II collagen-induced arthritis DBA/1 mouse model assessed as behavioral abnormalities at 20 mg/kg/day, po measured after 42 days; assay type: organism-based; settings: in vivo, 1008 h, time 42 day
[8] = Toxicity in chicken type II collagen-induced arthritis DBA/1 mouse model assessed as morphological changes in thymocytes at 20 mg/kg/day, po administered for 2 weeks by H and E staining based analysis; assay type: organism-based; settings: in vivo, 336 h
Mus musculus [9] = test: Antiarthritic activity in chicken type II collagen-induced arthritis DBA/1 mouse model assessed as reduction in fore paw thickness at 20 mg/kg/day, po administered for 2 weeks by H and E staining based analysis; assay type: functional, organism-based
Mus musculus [10] = test: Antiarthritic activity in chicken type II collagen-induced arthritis DBA/1 mouse model assessed as reduction in clinical score at 20 mg/kg/day, po measured after 42 days; assay type: functional, organism-based; settings: time 42.0 day
Mus musculus [11] = test: Antiarthritic activity in chicken type II collagen-induced arthritis DBA/1 mouse model assessed as reduction in hind paw swelling at 20 mg/kg/day, po administered for 2 weeks by H and E staining based analysis; assay type: functional, organism-based
Mus musculus [12] = test: Antiarthritic activity in chicken type II collagen-induced arthritis DBA/1 mouse model assessed as reduction in hind paw erythema at 20 mg/kg/day, po administered for 2 weeks by H and E staining based analysis; assay type: functional, organism-based
Mus musculus [13] = test: Antiarthritic activity in chicken type II collagen-induced arthritis DBA/1 mouse model assessed as reduction in fore paw swelling at 20 mg/kg/day, po administered for 2 weeks by H and E staining based analysis; assay type: functional, organism-based
[14] = Toxicity in chicken type II collagen-induced arthritis DBA/1 mouse model assessed as increase in thymic cortex to medulla ratio at 20 mg/kg/day, po administered for 2 weeks by H and E staining based analysis; assay type: organism-based; settings: in vivo, 336 h
Mus musculus [15] = test: Antiarthritic activity in chicken type II collagen-induced arthritis DBA/1 mouse model assessed as reduction in fore paw erythema at 20 mg/kg/day, po administered for 2 weeks by H and E staining based analysis; assay type: functional, organism-based
[16] = Toxicity in chicken type II collagen-induced arthritis DBA/1 mouse model assessed as body weight loss at 20 mg/kg/day, po measured after 42 days; assay type: organism-based; settings: in vivo, 1008 h, time 42 day

Structure (SMILES)	IC50 [1]	further results
CCc1ccc2c(c1)CCC(C)(C)N2S(=O)(=O)c1ccc(OCC2CCOCC2)c(CO)c1	310 nM	
CC[C@H]1CCc2cc(C(C)C)ccc2N1S(=O)(=O)c1ccc(OCC2CCOCC2)c(CO)c1	8.4 nM	IC50 [2]: 22.1 nM
CCc1ccc2c(c1)CCCN2S(=O)(=O)c1ccc(OCC2CCOCC2)c(CO)c1	858 nM	
CCc1ccc2c(c1)CCC(CC)N2S(=O)(=O)c1ccc(OCC2CCOCC2)c(CO)n1 (racemic)	212 nM	
CCc1ccc2c(c1)CCC(CC)N2S(=O)(=O)c1ccc(OCc2ccncn2)c(CO)c1 (racemic)	300 nM	
CCc1ccc2c(c1)CCC(CC)N2S(=O)(=O)c1ccc(OCCC(C)(C)O)c(CO)c1 (racemic)	459 nM	
CC1CCc2cc(C#N)ccc2N1S(=O)(=O)c1ccc(OCC2CCOCC2)c(CO)c1 (racemic)	689 nM	
CCc1ccc2c(c1)CCC(CC)N2S(=O)(=O)c1ccc(OCC2CCOCC2)c(S(C)(=O)=O)c1 (racemic)	1860 nM	
CCc1ccc2c(c1)CC(C)CN2S(=O)(=O)c1ccc(OCC2CCOCC2)c(CO)c1 (racemic)	36 nM	
CCc1ccc2c(c1)CCC(CC)N2S(=O)(=O)c1ccc(C(CO)N2CCOCC2)c(CO)c1 (racemic)	3120 nM	
CCc1ccc2c(c1)CCC(CC)N2S(=O)(=O)c1ccc(OCC2CCOCC2)c(CO)c1 (racemic)	11 nM	Activity (HUVEC): Non-Toxic; Activity (HeLa): Non-Toxic
CCc1ccc2c(c1)CCC(CC)N2S(=O)(=O)c1ccc(OC2CN(C(C)=O)C2)c(CO)c1 (racemic)	1760 nM	
CCc1ccc2c(c1)CCC(C)N2S(=O)(=O)c1ccc(OCC2CCOCC2)c(CO)c1 (racemic)	24 nM	
CCc1ccc2c(c1F)CCC(CC)N2S(=O)(=O)c1ccc(OCC2CCOCC2)c(CO)c1 (racemic)	14 nM	
CCC1CCc2cc(C(F)(F)F)ccc2N1S(=O)(=O)c1ccc(OCC2CCOCC2)c(CO)c1 (racemic)	21 nM	
CCc1ccc2c(c1)C(C)CCN2S(=O)(=O)c1ccc(OCC2CCOCC2)c(CO)c1 (racemic)	655 nM	
CCc1ccc2c(c1)CCC(CC)N2S(=O)(=O)c1ccc(OC2CCN(S(C)(=O)=O)CC2)c(CO)c1 (racemic)	170 nM	
CCC1CCc2cc(CC(C)(F)F)ccc2N1S(=O)(=O)c1ccc(OCC2CCOCC2)c(CO)c1 (racemic)	16 nM	

Structure (SMILES)	IC50 [1]	further results
CCc1ccc2c(c1)CCC(CC)N2S(=O)(=O)c1ccc(C(O)CC2CCOCC2)c(CO)c1 (racemic)	201 nM	
CCC1CCc2cc(C(C)(C)O)ccc2N1S(=O)(=O)c1ccc(OCC2CCOCC2)c(CO)c1 (racemic)	1400 nM	
CCc1ccc2c(c1)CCC(CC)N2S(=O)(=O)c1ccc(OCCS(C)(=O)=O)c(CO)c1 (racemic)	1430 nM	
CC1CCc2cc(C3CC3)ccc2N1S(=O)(=O)c1ccc(OCC2CCOCC2)c(CO)c1 (racemic)	21 nM	
CCc1ccc2c(c1)CCC(C(F)(F)F)N2S(=O)(=O)c1ccc(OCC2CCOCC2)c(CO)c1 (racemic)	23 nM	
CCC1CCc2cc(CC(F)(F)F)ccc2N1S(=O)(=O)c1ccc(OCC2CCOCC2)c(CO)c1 (racemic)	23 nM	
CCc1ccc2c(c1)CCC(CC)N2S(=O)(=O)c1ccc(OCC2CCS(=O)(=O)CC2)c(CO)c1 (racemic)	146 nM	
C=C(C)c1ccc2c(c1)CCC(CC)N2S(=O)(=O)c1ccc(OCC2CCOCC2)c(CO)c1 (racemic)	12 nM	
CCc1ccc2c(c1)CCC(C(C)C)N2S(=O)(=O)c1ccc(OCC2CCOCC2)c(CO)c1 (racemic)	2 nM	
CCc1ccc2c(c1)CCC(CO)N2S(=O)(=O)c1ccc(OCC2CCOCC2)c(CO)c1 (racemic)	3420 nM	
CCC1CCc2cc(C(C)(C)C)ccc2N1S(=O)(=O)c1ccc(OCC2CCOCC2)c(CO)c1 (racemic)	70 nM	
CCc1ccc2c(c1)CCC(CC)N2S(=O)(=O)c1ccc(OCC2CCOCC2)c(S(N)(=O)=O)c1 (racemic)	576 nM	
CCc1cnc2c(c1)CCC(CC)N2S(=O)(=O)c1ccc(OCC2CCOCC2)c(CO)c1 (racemic)	35 nM	
CCc1ccc2c(c1)CCC(CC(C)C)N2S(=O)(=O)c1ccc(OCC2CCOCC2)c(CO)c1 (racemic)	21 nM	
CCc1ccc2c(c1)CC(CC)CN2S(=O)(=O)c1ccc(OCC2CCOCC2)c(CO)c1 (racemic)	32 nM	
C=Cc1ccc2c(c1)CCC(CC)N2S(=O)(=O)c1ccc(OCC2CCOCC2)c(CO)c1 (racemic)	36 nM	
O=C([O-])Cc1ccccc1Nc1c(Cl)cccc1Cl.[Na+] [DICLOFENAC SODIUM]		Activity [3]: Non-Toxic; Activity [4]: Non-Toxic; Activity (Mus musculus [5]): Active; Activity (Mus musculus [6]): Active; Activity [7]: Non-Toxic; Activity [8]: Non-Toxic; Activity (Mus musculus [9]): Active; Activity (Mus musculus [10]): Active; Activity (Mus musculus [11]): Active; Activity (Mus musculus [12]): Active; Activity (Mus musculus [13]): Active; Activity [14]: Toxic; Activity (Mus musculus [15]): Active; Activity [16]: Non-Toxic
